Article PMC12118597 (Science Advances, 2025)
Read-outs that look alike come from different tables or passages of the source.

Target: SARS-CoV-2 NSP3 macrodomain (Mac1) (Severe acute respiratory syndrome coronavirus 2, UniProt P0DTD1)
Format: binding
Conditions: for PanDDA run, overall: Modeling comment / PanDDA run, overall: Hit / PanDDA run, overall: Modeled: P43 crystal form; for 1-BDC: PanDDA background density correction factor; for Total number of conformations: ligand conformations modeled in the crystal structure; for 2*(1-BDC) (%): occupancy estimate from PanDDA; for Refined ligand occupancy (%): refined crystallographic occupancy
[1] = TRUE = crystal structure with ligand obtained
[2] = site of ligand in X-ray crystal structure
[3] = ligand-bound crystal structure obtained (TRUE)
[4] = site occupied in X-ray crystal structure
[5] = crystal soak 10 mM, TFA/DMSO background map

O=C(O)C(F)(F)F.OCC(CC1CCOCC1)Nc1ncnc2[nH]ccc12 (stereo not drawn) [AVI-3676]
PanDDA run, overall: Modeling comment (crystal soak 10 mM): TFA only

OCC(Nc1ncnc2[nH]ccc12)C1CCOC1 (stereo not drawn) [AVI-3679]
Occupancy difference (refined_occupancy - 2*(1-BDC)): 0
1-BDC: 0.16
X-ray crystal structure [1]: TRUE
PanDDA run, overall: Hit (crystal soak 10 mM): TRUE
PanDDA run, overall: Modeled (crystal soak 10 mM): TRUE
PanDDA run, DMSO background map: 1-BDC (crystal soak 10 mM): 0.16
PanDDA run, DMSO background map: Hit (crystal soak 10 mM): TRUE
Total number of conformations: 1
2*(1-BDC) (%): 32%
Refined ligand occupancy (%): 32%
Binding site [2]: Adenosine

O=C(O)C(F)(F)F.OCC12CC(CN1c1ncnc3[nH]ccc13)C2 [AVI-3681]
Occupancy difference (refined_occupancy - 2*(1-BDC)): -14
1-BDC: 0.22
PanDDA run, overall: Hit (crystal soak 10 mM): TRUE
PanDDA run, overall: Modeled (crystal soak 10 mM): TRUE
PanDDA run, overall: Modeling comment (crystal soak 10 mM): Distal site, weak density, not modeled
PanDDA run, DMSO background map: 1-BDC (crystal soak 10 mM): 0.22
PanDDA run, DMSO background map: Hit (crystal soak 10 mM): TRUE
Total number of conformations: 1
X-ray crystal structure [3]: TRUE
2*(1-BDC) (%): 44%
Refined ligand occupancy (%): 30%
Binding site [4]: Adenosine

Cc1ccc(CC(CO)Nc2ncnc3[nH]ccc23)cc1 (stereo not drawn) [AVI-3683]
Occupancy difference (refined_occupancy - 2*(1-BDC)): 20
1-BDC: 0.15
X-ray crystal structure [1]: TRUE
PanDDA run, overall: Hit (crystal soak 10 mM): TRUE
PanDDA run, overall: Modeled (crystal soak 10 mM): TRUE
PanDDA run, DMSO background map: 1-BDC (crystal soak 10 mM): 0.15
PanDDA run, DMSO background map: Hit (crystal soak 10 mM): TRUE
Total number of conformations: 2
2*(1-BDC) (%): 30%
Refined ligand occupancy (%): 50%
Binding site [2]: Adenosine

Cc1ccc(CC(CO)Nc2ncnc3[nH]ccc23)cc1C (stereo not drawn) [AVI-3684]
Occupancy difference (refined_occupancy - 2*(1-BDC)): 20
1-BDC: 0.15
X-ray crystal structure [1]: TRUE
PanDDA run, overall: Hit (crystal soak 10 mM): TRUE
PanDDA run, overall: Modeled (crystal soak 10 mM): TRUE
PanDDA run, DMSO background map: 1-BDC (crystal soak 10 mM): 0.15
PanDDA run, DMSO background map: Hit (crystal soak 10 mM): TRUE
Total number of conformations: 2
2*(1-BDC) (%): 30%
Refined ligand occupancy (%): 50%
Binding site [2]: Adenosine

OCC1CCCN1c1ncnc2[nH]ccc12 (stereo not drawn) [AVI-3685]
Occupancy difference (refined_occupancy - 2*(1-BDC)): 20
1-BDC: 0.25
PanDDA run, overall: Hit (crystal soak 10 mM): TRUE
PanDDA run, overall: Modeled (crystal soak 10 mM): TRUE
PanDDA run, DMSO background map: 1-BDC (crystal soak 10 mM): 0.25
PanDDA run, DMSO background map: Hit (crystal soak 10 mM): TRUE
Total number of conformations: 1
X-ray crystal structure [3]: TRUE
2*(1-BDC) (%): 50%
Refined ligand occupancy (%): 70%
Binding site [4]: Adenosine

OCC(Cc1ccc(I)cc1)Nc1ncnc2[nH]ccc12 (stereo not drawn) [AVI-3686]
Occupancy difference (refined_occupancy - 2*(1-BDC)): 0
1-BDC: 0.2
X-ray crystal structure [1]: TRUE
PanDDA run, overall: Hit (crystal soak 10 mM): TRUE
PanDDA run, overall: Modeled (crystal soak 10 mM): TRUE
PanDDA run, DMSO background map: 1-BDC (crystal soak 10 mM): 0.2
PanDDA run, DMSO background map: Hit (crystal soak 10 mM): TRUE
Total number of conformations: 2
2*(1-BDC) (%): 40%
Refined ligand occupancy (%): 40%
Binding site [2]: Adenosine

O=C(O)C(F)(F)F.OCC(Nc1ncnc2[nH]ccc12)C(O)C1CCCCC1 (stereo not drawn) [AVI-3687]
PanDDA run, overall: Hit (crystal soak 10 mM): TRUE
PanDDA run, overall: Modeling comment (crystal soak 10 mM): Weak density, not modeled
PanDDA run, DMSO background map: 1-BDC (crystal soak 10 mM): 0.15
PanDDA run, DMSO background map: Hit (crystal soak 10 mM): TRUE
PanDDA run, TFA/DMSO background map: 1-BDC [5]: 0.08
PanDDA run, TFA/DMSO background map: Hit [5]: TRUE

O=C(O)C(F)(F)F.OCC1(Nc2ncnc3[nH]ccc23)CC1 [AVI-3688]
Occupancy difference (refined_occupancy - 2*(1-BDC)): 20
1-BDC: 0.2
X-ray crystal structure [1]: TRUE
PanDDA run, overall: Hit (crystal soak 10 mM): TRUE
PanDDA run, overall: Modeled (crystal soak 10 mM): TRUE
PanDDA run, DMSO background map: 1-BDC (crystal soak 10 mM): 0.2
PanDDA run, DMSO background map: Hit (crystal soak 10 mM): TRUE
Total number of conformations: 1
2*(1-BDC) (%): 40%
Refined ligand occupancy (%): 60%
Binding site [2]: Adenosine

OCC(CC1CCCCC1)Nc1ncnc2[nH]ccc12 (stereo not drawn) [AVI-3690]
Occupancy difference (refined_occupancy - 2*(1-BDC)): 0
1-BDC: 0.12
X-ray crystal structure [1]: TRUE
PanDDA run, overall: Hit (crystal soak 10 mM): TRUE
PanDDA run, overall: Modeled (crystal soak 10 mM): TRUE
PanDDA run, overall: Modeling comment (crystal soak 10 mM): Weak density for alternative ligand conformation
PanDDA run, DMSO background map: 1-BDC (crystal soak 10 mM): 0.12
PanDDA run, DMSO background map: Hit (crystal soak 10 mM): TRUE
Total number of conformations: 1
2*(1-BDC) (%): 24%
Refined ligand occupancy (%): 24%
Binding site [2]: Adenosine

OCC(CC1CCCC1)Nc1ncnc2[nH]ccc12 (stereo not drawn) [AVI-3691]
Occupancy difference (refined_occupancy - 2*(1-BDC)): -16
1-BDC: 0.18
X-ray crystal structure [1]: TRUE
PanDDA run, overall: Hit (crystal soak 10 mM): TRUE
PanDDA run, overall: Modeled (crystal soak 10 mM): TRUE
PanDDA run, DMSO background map: 1-BDC (crystal soak 10 mM): 0.18
PanDDA run, DMSO background map: Hit (crystal soak 10 mM): TRUE
Total number of conformations: 1
2*(1-BDC) (%): 36%
Refined ligand occupancy (%): 20%
Binding site [2]: Adenosine
